Laboratory results taken from publication PMC9841576, “Characterisation of C101248: A novel selective THIK-1 channel inhibitor for the modulation of microglial NLRP3-inflammasome” (Neuropharmacology, 2023).
Like-named read-outs stand apart in the source and are kept apart here.

Target: T1, mouse THIK-1 (Mus musculus, UniProt Q8R1P5)
T1 construct: expressed in transfected cells
T1 sequence (Q8R1P5 1-405): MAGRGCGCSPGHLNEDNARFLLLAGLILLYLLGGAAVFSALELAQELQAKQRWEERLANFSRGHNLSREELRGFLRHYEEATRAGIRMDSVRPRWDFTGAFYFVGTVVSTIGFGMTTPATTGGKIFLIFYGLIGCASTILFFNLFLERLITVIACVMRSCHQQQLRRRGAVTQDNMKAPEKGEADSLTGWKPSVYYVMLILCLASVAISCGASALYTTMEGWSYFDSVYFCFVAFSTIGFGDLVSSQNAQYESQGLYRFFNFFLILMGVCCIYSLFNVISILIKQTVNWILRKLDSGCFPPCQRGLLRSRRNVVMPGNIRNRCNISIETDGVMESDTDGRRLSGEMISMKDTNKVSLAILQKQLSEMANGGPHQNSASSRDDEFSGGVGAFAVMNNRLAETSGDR
Experiment: FLIPR thallium influx assay, HEK-mTHIK-1 cells
Type: cell-based
Experimental: HEK-293 cells were transfected with human THIK-1, TREK-1, TWIK-2, or mouse THIK-1 cDNA cloned into pcDNA3.1, using either Fugene HD transfection reagent (Promega) or electroporation (MaxCyte STX instrument). Cells stably expressing the relevant genes were selected based on resistance to 500 μg/ml geneticin (Gibco). For human THIK-1 and TWIK-2 expressing cells, monoclonal lines were isolated by limited dilution cloning; mouse THIK-1 and human TREK-1 expressing cells were maintained as polyclonal pools. The HEK-293 pools and monoclones stably expressing the relevant genes were maintained in DMEM (Life Technologies), supplemented with 10% FCIII (HyClone, Fetal clone III) and 500 μg/ml geneticin. A CHO-Kv2.1 cell line was purchased from Millipore (accession NM_004975) and maintained in F12 (Life Technologies), supplemented with 10% FCSIII (Thermo Scientific) and 500 μg/ml geneticin (Life Technologies). For thallium flux assays, banks of frozen cell aliquots were prepared the day prior to assay, cells were thawed into media and seeded into PDL coated 384-well plates (Corning) at 25,000 (human/mouse THIK-1, TREK-1) or 30,000 (TWIK-2) cells/well (25 μl/well). CHO-Kv2.1 cells were seeded into non-PDL coated plates (Corning) at 5000 cells/well. Plated cells were incubated overnight at 37 °C, 5% CO2 in a humidified atmosphere. For Q-Patch assays, cells were cultured for 7 days prior to assay, dissociated, and diluted to 1–2.5 million/ml in EX-CELL ACF serum free media containing HEPES (25 mM; Life Technologies), penicillin/streptomycin (100 U/ml, 100 μg/ml; Life Technologies) and a trypsin inhibitor (0.04 mg/ml).
A fluorescence-based thallium influx assay (Molecular Devices potassium assay kit) was used to monitor channel activity. […] Using a fluorescent imaging plate reader (FLIPR) tetra plate reader, 15 μl thallium stimulus solution was added to the cell plate and the fluorescence signal recorded every second for 1 min (excitation: 470–495 nm, emission: 515–575 nm).

IC50 (HEK-mTHIK-1, normalised to TPA controls, read-out: IC50, mouse THIK-1 (thallium influx)): 49 nM | maximum inhibition (HEK-mTHIK-1, thallium influx): 100% | IC50 (mouse THIK-1, read-out: IC50, inhibition of mouse THIK-1 (abstract)): ~50 nM
Compound: Nc1nonc1-c1nc2ccccc2n1Cc1ccncc1 [C101248]
